Results published in patent US12551482B2, “Aurora kinase inhibitors” (The Regents of the University of California, priority 2013, dated 2026).
“Also recorded” adds a separate entry of the source. Like-named read-outs stand apart in the source and are kept apart here.

How the values were obtained:
[1] = test system: MYCN-expressing, SHH-subtype medulloblastoma allograft; assay: Medulloblastoma allograft in mice; format: in vivo
Experimental: Mice were injected intraperitoneally as described. For determining tumor volume, for example in medulloblastoma model mice, mice were euthanized once maximum tumor length exceeded 2.0 cm, per IACUC protocol (IACUC, Institutional Animal Care and Use Committee).

SAS = assay: Cancer cell line profiling, Genomics of Drug Sensitivity Project; conditions: read-out: CD532 EC50 (uM)
[2] = test system: MYCN amplified neuroblastoma cells; assay: Cell cycle by flow cytometry; format: cell-based; conditions: 4 or 6 hrs of treatment
Experimental: (§1) Neuroblastoma cells were treated for the indicated time, trypsinized, washed, stained with Dylight 800 at 0.3 μg/mL (Pierce, 46421), fixed with 1.5% PFA, and permeabilized with 100% methanol. Cells were then stained with antibodies against p-MPM2 (Millipore, 16-155), p-pan-Aurora (Cell Signaling, 2914), MYCN (Thermo, PA5-17403), rabbit IgG (Invitrogen, A10542), or mouse IgG (BioLegend, 405307). Cells were stained with DAPI at 0.3 μg/mL (Invitrogen, D21490) and analyzed on the BD LSR II flow cytometer. For cell cycle analysis, cells were stimulated with EdU for 2 hours prior to harvest, then probed using the Click-iT EdU Flow Cytometry Assay Kit (Invitrogen, C10424). Cells were stained with propidium iodide (BD, 556547) and analyzed on the BD FACSCalibur flow cytometer. Data was gated using Cytobank. For viability studies, neuroblastoma cells were plated in 96-well plates at a density of 1,000 cells/well for SHEP or 4,000 cells/well for Kelly or SK—N-BE2 cells, then incubated with indicated concentrations of drug for 72 hours at 37° C. Plates were frozen at −80° C. to induce cell lysis. CyQUANT reagent mixture (Invitrogen, C7026) was added to thawed plates, then fluorescence was measured. Alternatively, resazurin (Sigma-Aldrich, R7017) was added directly to wells following drug treatment then incubated for 4 hours at 37° C. prior to measuring fluorescence. Data was analyzed using GraphPad Prism software.

FU97 = assay: Cancer cell line profiling, Genomics of Drug Sensitivity Project; conditions: Fu97, read-out: CD532 EC50 (uM)
UACC-257 = assay: as above; conditions: Homo sapiens, UACC-257, read-out: CD532 EC50 (uM)
MYCN-Aurora A complex = target: T1, MYCN-Aurora A complex (Homo sapiens, UniProt O14965); assay: Pulldown of MYCN and immunoblot for Aurora A; format: cell-based; conditions: MYCN-amplified IMR32 cells, 4 hrs MG-132, 2 hrs drug, increasing concentrations
T1 construct: Representative immunoprecipitation of MYCN and immunoblots from MYCN-amplified IMR32 cells; endogenous in cells
T1 sequence (O14965 whole entry, one chain of several): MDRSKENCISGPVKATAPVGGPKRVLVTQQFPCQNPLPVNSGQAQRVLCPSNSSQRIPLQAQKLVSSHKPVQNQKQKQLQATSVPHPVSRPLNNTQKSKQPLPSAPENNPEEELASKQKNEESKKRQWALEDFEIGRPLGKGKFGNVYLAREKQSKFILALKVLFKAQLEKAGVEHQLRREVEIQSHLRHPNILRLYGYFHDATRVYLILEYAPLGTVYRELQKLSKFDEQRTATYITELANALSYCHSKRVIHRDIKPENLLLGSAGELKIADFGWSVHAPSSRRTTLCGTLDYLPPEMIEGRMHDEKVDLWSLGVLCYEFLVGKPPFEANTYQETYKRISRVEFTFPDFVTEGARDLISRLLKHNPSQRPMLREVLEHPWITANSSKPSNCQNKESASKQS

B-CPAP = assay: Cancer cell line profiling, Genomics of Drug Sensitivity Project; conditions: Homo sapiens, BCPAP, read-out: CD532 EC50 (uM)
PE/CA-PJ15 = assay: as above; conditions: read-out: CD532 EC50 (uM)
HMVII = assay: as above; conditions: read-out: CD532 EC50 (uM)
HLE = assay: as above; conditions: Homo sapiens, read-out: CD532 EC50 (uM)
Detroit 562 = assay: as above; conditions: Homo sapiens, Detroit 562, read-out: CD532 EC50 (uM)
ACN = assay: as above; conditions: read-out: CD532 EC50 (uM)
[3] = test system: SK-N-BE(2) MYCN-amplified neuroblastoma cells; assay: Viability at 72 hrs, CyQUANT assay; format: cell-based; conditions: Homo sapiens, SKNBE2, SK-N-BE(2) cells, FIG. 1E, read-out: cellular EC50 at 72 hrs
phospho-pan-Aurora = assay: Phospho-pan-Aurora by flow cytometry; format: cell-based; conditions: 1 μM, 6 hrs (FIG. 6C)
Experimental: as §1

MYCN = assay: Dose response immunoblot for MYCN in MYCN-amplified neuroblastoma cell lines (SK-N-BE(2), SMS-KCN, Kelly); format: cell-based; conditions: multiple cell lines, 24 hrs (FIGS. 1D and 7)
Experimental: Neuroblastoma tumor cell lines were obtained from the University of California San Francisco Cell Culture Facility (Kelly, SK-N-BE2, and SH-EP). SMS-KCN, SHEP MYCN^wt and MYCN^T58A/S62A cells were obtained. All cells were grown in RPMI with 10% FBS. Neuroblastoma cells were harvested and lysed with Cell Signaling Lysis buffer+1% SDS, sonicated and supernatants boiled in LDS sample buffer (Invitrogen). Western blots were performed as described previously (Chanthery et al., 2012), with primary antibodies to MYCN (ab24193, Abcam), Histone H3, P-Histone H3 (S10), Aurora A (Cell signaling), and GAPDH (Millipore). Western blot quantitation performed with ImageJ software.

Aurora A protein = target: T2, Aurora A protein (Homo sapiens, UniProt O14965); assay: Dose response immunoblot for Aurora A protein in MYCN-amplified neuroblastoma cell lines; format: cell-based; conditions: across cell lines (FIGS. 1D and 7)
T2 construct: endogenous in cells; host or cells: SK-N-BE(2), SMS-KCN, Kelly neuroblastoma cells
T2 sequence (O14965 whole entry): as the sequence (O14965 whole entry, one chain of several) above
Experimental: Neuroblastoma tumor cell lines were obtained from the University of California San Francisco Cell Culture Facility (Kelly, SK-N-BE2, and SH-EP). SMS-KCN, SHEP MYCN^wt and MYCN^T58A/S62A cells were obtained. All cells were grown in RPMI with 10% FBS. Neuroblastoma cells were harvested and lysed with Cell Signaling Lysis buffer+1% SDS, sonicated and supernatants boiled in LDS sample buffer (Invitrogen). […] Western blot quantitation performed with ImageJ software.

RPMI-7951 = assay: Cancer cell line profiling, Genomics of Drug Sensitivity Project
Ca9-22 = assay: as above; conditions: Homo sapiens, Ca9-22, read-out: CD532 EC50 (uM)
A2058 = assay: as above
BB30-HNC = assay: as above; conditions: read-out: CD532 EC50 (uM)
MEL-JUSO = assay: as above; conditions: Homo sapiens, read-out: CD532 EC50 (uM)

Structure (SMILES): O=C(Nc1ccc(Nc2nccc(Nc3cc(C4CCCC4)[nH]n3)n2)cc1)Nc1cccc(C(F)(F)F)c1 [CD532, 1-(4-((4-((5-cyclopentyl-1H-pyrazol-3-yl)amino)pyrimidin-2-yl)amino)phenyl)-3-(3-(trifluoromethyl)phenyl)urea]
- overall survival ([1]; 25 mg/kg b.i.w. vs vehicle): statistical significant increase in overall survival
- tumor growth (tumor size over time) ([1]; 25 mg/kg b.i.w., intraperitoneal injection): inhibits growth
- EC50 (SAS): 1.46 µM
- cell cycle effect [2]: potent loss of S-phase entry
- EC50 (FU97): 0.545 µM
- EC50 (UACC-257): 0.607 µM
- MYCN-Aurora A interaction (MYCN-Aurora A complex): complete and dose-dependent loss of Aurora A/MYCN interaction; also recorded: dose-dependent and complete dissociation of the MYCN-Aurora A complex
- EC50 (B-CPAP): 0.739 µM
- EC50 (PE/CA-PJ15): 1.9 µM
- EC50 (HMVII): 0.746 µM
- EC50 (HLE): 0.567 µM
- EC50 (Detroit 562): 1.25 µM
- EC50 (ACN): 0.884 µM
- EC50 [3]: 0.223 µM
- phospho-pan-Aurora (phospho-pan-Aurora): loss of phospho-pan-Aurora
- MYCN protein, dose response (MYCN): dose dependent loss of MYCN protein
- Aurora A protein level (Aurora A protein): downregulated Aurora A protein across cell lines (at higher concentrations)
- EC50 (RPMI-7951; Homo sapiens, RPMI-7951, read-out: CD532 EC50 (uM), RPMI-7951 cell line, Skin): 1.06 µM
- EC50 (RPMI-7951; read-out: CD532 EC50, RPMI-7951 cell line, Skin): 0.952 µM
- EC50 (Ca9-22): 0.705 µM
- EC50 (A2058; Homo sapiens, A2058, read-out: CD532 EC50 (uM), A2058 cell line, Skin): 0.975 µM
- EC50 (A2058; read-out: CD532 EC50, A2058 cell line, Skin): 1.09 µM
- EC50 (BB30-HNC): 0.462 µM
- EC50 (MEL-JUSO): 0.783 µM
